What was measured:
[1] = target: JNK1 (Homo sapiens, UniProt P45983); assay: IMAP-based FP kinase assay; type: biochemical
[2] = target: C-terminal truncated form of human JNK1α1 (residues 1–364) (human, UniProt P45983-2 1-364); assay: crystal structure
C-terminal truncated form of human JNK1α1 (residues 1–364), sequence (P45983 1-364): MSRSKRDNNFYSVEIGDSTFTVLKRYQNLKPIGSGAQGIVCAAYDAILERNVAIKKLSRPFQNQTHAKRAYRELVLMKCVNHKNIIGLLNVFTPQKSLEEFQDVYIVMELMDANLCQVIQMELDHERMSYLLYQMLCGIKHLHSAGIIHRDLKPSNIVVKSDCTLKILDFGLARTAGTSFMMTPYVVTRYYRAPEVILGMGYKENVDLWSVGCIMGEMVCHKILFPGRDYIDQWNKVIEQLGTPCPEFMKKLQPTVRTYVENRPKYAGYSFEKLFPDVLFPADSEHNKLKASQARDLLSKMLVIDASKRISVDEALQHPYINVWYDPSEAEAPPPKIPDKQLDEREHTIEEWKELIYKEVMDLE

| IC50 [1] | binding result [2] | Molecule |
| --- | --- | --- |
|  | binds | RPKRPTTLNLF [peptide fragment of JIP1 (pepJIP1)] |

Source: publication PMC3540140 (Journal of molecular biology, 2012)
